Experimental data reported in ChEMBL document CHEMBL1649432, “Chromosomal integration of the extended-spectrum beta-lactamase gene blaCTX-M-15 in Salmonella enterica serotype Concord isolates from internationally adopted children” (2009).
In brackets after ≈: the same amount, converted by molar mass.

Tests used:
Type in all cases: functional, Salmonella enterica subsp. enterica serovar Concord
[1] = Antimicrobial activity against Salmonella enterica serotype concord expressing extended-spectrum beta-lactamase SHV-12 by Etest
[2] = Antimicrobial activity against Salmonella enterica serotype concord expressing extended-spectrum beta-lactamase CTX-M-15 by Etest
[3] = Antimicrobial activity against Salmonella enterica serotype concord expressing extended-spectrum beta-lactamase CTX-M-15 by disc diffusion method
[4] = Antimicrobial activity against Salmonella enterica serotype concord expressing extended-spectrum beta-lactamase SHV-12 by disc diffusion method

| MIC [4] [µg/mL] | MIC ([3]; Salmonella enterica) [µg/mL] | SMILES | MIC [1] [µg/mL] | MIC [2] [µg/mL] | Activity [3] [µg/mL] |
| --- | --- | --- | --- | --- | --- |
| – | – | CC(C)(O/N=C(\C(=O)N[C@@H]1C(=O)N2C(C(=O)[O-])=C(C[n+]3ccccc3)CS[C@H]12)c1csc(N)n1)C(=O)O [CEFTAZIDIME] | > 256 | > 256 | – |
| – | – | O=C(O)c1cn(C2CC2)c2cc(N3CCNCC3)c(F)cc2c1=O [CIPROFLOXACIN] | – | – | 0.25 |
| – | – | CO/N=C(\C(=O)N[C@@H]1C(=O)N2C(C(=O)O)=C(CSc3nc(=O)c(O)nn3C)CS[C@H]12)c1csc(N)n1 [CEFTRIAXONE] | 64 (≈ 115 µM) | > 256 | – |
| 8 (≈ 16.6 µM) | > 256 | CO/N=C(\C(=O)N[C@@H]1C(=O)N2C(C(=O)[O-])=C(C[N+]3(C)CCCC3)CS[C@H]12)c1csc(N)n1 [CEFEPIME] | – | – | – |
